According to patent US20260201008A1, “SECRETIN-DERIVED GLP1R SELECTIVE AGONISTS” (GUBRA A/S, priority 2023, published 2026):
Where two headings read alike, the source gives them in different places. Numbered stars: 1 amine (or outer) side, 2 acyl side, 3 side chain; on linkers, the order of the positions; unused ones are H or OH. Square brackets hold non-standard residues; d marks the D form. Side chains are listed from the residue outwards. Peptide text beside a SMILES is read from it. * marks the point of attachment. C20 diacid = O=C(O)CCCCCCCCCCCCCCCCCCC(=O)*; γGlu = O=C(O)[C@H](CCC(=O)[*:2])N[*:1]; AEEA = NCCOCCOCC(=O)O; Aib = CC(C)(N)C(=O)O

Columns and labels:
[1] = target: SCTR (Homo sapiens, UniProt P47872); test: hSCTR potency, cAMP accumulation in CHO-K1 cells stably overexpressing hSCTR; format: cell-based; set-up: alternatively Euroscreen ES-712-AF; FAST-0161L; host or cells: CHO-K1; details: cAMP accumulation, CHO-K1 cells overexpressing hSCTR
Summary of the method: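 CHO-K1/hSCTR cells; DPBS + 0.05% casein + 0.5 mM IBMX; 30 min RT stimulation; cAMP by TR-FRET read at 1 h. Crude peptides: 5-point 10-fold dilutions, n=1. Purified: 11-point 3-fold dilutions, n=2. EC50 via variable-slope fit.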

[2] = target: GLP1R (Homo sapiens, UniProt P43220); test: hGLP1R potency, cAMP accumulation in CHO-K1 cells stably overexpressing hGLP1R; format: cell-based; set-up: host or cells: CHO-K1; details: for EC50: cAMP accumulation, CHO-K1 cells overexpressing hGLP1R; for SCTR EC50/GLP1R EC50 ratio: selectivity for hGLP1R over hSCTR, cAMP accumulation in CHO-K1 cells
Summary of the method: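 TR-FRET cAMP read-out, one hour after reagent addition, following 30 min compound exposure at RT in DPBS/0.05% casein/0.5 mM IBMX. Crude peptides: 5 points, 10-fold steps, n=1. Purified peptides: 11 points, 3-fold steps, n=2. EC50 fitted with a variable-slope sigmoid.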

[3] = Turbidity of crude library peptides (absorbance at 600 nm); format: physicochemical; details: Physical stability of peptides
Summary of the method: (§1)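 Fibril formation is scored as average ThT fluorescence from duplicate samples monitored for 72 h at 40° C with shaking stress. Turbidity is the absorbance at 600 nm taken before heating. Peptide concentration was 267 μM at pH 4.0 or pH 7.0.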

[4] = Fibril formation of crude library peptides (Thioflavin T); format: physicochemical; set-up: key: average ThT fluorescence emission at 480 nm (ex 450 nm), raw units; details: Physical stability of peptides
Summary of the method: as §1

[5] = read-out: hSCTR pEC50 (converted)
[6] = read-out: hGLP1R pEC50 (converted)

Sequence of SCTR (P47872 23-440): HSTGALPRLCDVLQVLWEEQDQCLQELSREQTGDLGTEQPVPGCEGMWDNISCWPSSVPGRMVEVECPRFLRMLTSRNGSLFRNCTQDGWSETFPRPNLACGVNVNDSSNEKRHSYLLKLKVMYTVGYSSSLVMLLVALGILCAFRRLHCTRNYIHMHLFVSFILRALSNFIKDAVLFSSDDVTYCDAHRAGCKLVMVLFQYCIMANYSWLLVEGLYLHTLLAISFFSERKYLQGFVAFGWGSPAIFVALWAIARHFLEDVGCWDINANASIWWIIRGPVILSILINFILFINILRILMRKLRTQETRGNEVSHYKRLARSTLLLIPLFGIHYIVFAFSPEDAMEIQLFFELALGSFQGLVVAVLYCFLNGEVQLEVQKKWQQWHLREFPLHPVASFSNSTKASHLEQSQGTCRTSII
Sequence of GLP1R (P43220 24-463): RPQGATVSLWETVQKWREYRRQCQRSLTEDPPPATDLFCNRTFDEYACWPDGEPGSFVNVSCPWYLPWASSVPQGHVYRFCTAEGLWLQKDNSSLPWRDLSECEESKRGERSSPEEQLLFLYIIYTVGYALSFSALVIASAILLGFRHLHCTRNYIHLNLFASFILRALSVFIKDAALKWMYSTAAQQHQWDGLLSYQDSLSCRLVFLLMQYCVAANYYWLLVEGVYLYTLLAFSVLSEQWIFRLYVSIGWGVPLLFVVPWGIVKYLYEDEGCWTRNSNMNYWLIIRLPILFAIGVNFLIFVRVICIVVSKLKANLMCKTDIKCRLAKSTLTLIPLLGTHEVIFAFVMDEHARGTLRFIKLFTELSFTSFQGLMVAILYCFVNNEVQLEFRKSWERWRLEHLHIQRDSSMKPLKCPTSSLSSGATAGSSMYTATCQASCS

EC50 [1, 5] [nM] | EC50 [2, 6] [nM] | SCTR EC50/GLP1R EC50 ratio [2] | Turbidity (pH 7) [3] | Fibril formation [4] | EC50 ([1]; read-out: pEC50 hSCTR (converted)) [nM] | Selectivity ([2]; SCTR EC50/GLP1R EC50 ratio) | EC50 ([2]; read-out: pEC50 hGLPR1 (converted)) [nM] | SMILES
63.1 | 0.0158 | 4094 | 0.08 | 2928 | – | – | – | CC(C)C[C@H](NC(=O)[C@H](C)NC(=O)[C@H](CO)NC(=O)[C@@H](NC(=O)[C@H](CC(=O)O)NC(=O)[C@H](CO)NC(=O)[C@@H](NC(=O)[C@H](Cc1ccccc1)NC(=O)[C@@H](NC(=O)CNC(=O)[C@H](CCC(=O)O)NC(=O)C(C)(C)NC(=O)[C@@H](N)Cc1c[nH]cn1)[C@@H](C)O)[C@@H](C)O)C(C)C)C(=O)N[C@@H](CCCCNC(=O)COCCOCCNC(=O)COCCOCCNC(=O)CC[C@H](NC(=O)CCCCCCCCCCCCCCCCCCC(=O)O)C(=O)O)C(=O)N[C@@H](CCC(=O)O)C(=O)N[C@@H](CCC(=O)O)C(=O)N[C@@H](C)C(=O)NC(C)(C)C(=O)N[C@@H](CC(C)C)C(=O)N[C@@H](CCC(N)=O)C(=O)N[C@@H](CCCNC(=N)N)C(=O)N[C@@H](Cc1ccccc1)C(=O)N[C@@H](CC(C)C)C(=O)N[C@@H](CCC(=O)O)C(=O)N[C@@H](Cc1c[nH]cn1)C(=O)N[C@@H](CC(C)C)C(=O)N[C@H](C(N)=O)C(C)C [compound 148] (H-H[Aib]EGTFTSDVSALK([AEEA-AEEA-γGlu-C20 diacid])EEA[Aib]LQRFLEHLV-NH2)
2000 | 0.0316 | 70974 | 0.24 | 26712 | – | – | – | CC[C@H](C)[C@H](NC(=O)[C@H](Cc1ccccc1)NC(=O)[C@H](CCCNC(=N)N)NC(=O)[C@H](CCC(N)=O)NC(=O)[C@H](CC(C)C)NC(=O)[C@H](C)NC(=O)[C@H](C)NC(=O)CNC(=O)[C@H](CCC(=O)O)NC(=O)[C@H](CC(C)C)NC(=O)[C@H](CC(C)C)NC(=O)[C@H](Cc1ccccc1)NC(=O)[C@H](CO)NC(=O)C(C)(C)NC(=O)[C@H](CC(=O)O)NC(=O)[C@H](CO)NC(=O)[C@@H](NC(=O)[C@H](Cc1ccccc1)NC(=O)[C@@H](NC(=O)CNC(=O)[C@H](CCC(=O)O)NC(=O)C(C)(C)NC(=O)[C@@H](N)Cc1c[nH]cn1)[C@@H](C)O)[C@@H](C)O)C(=O)N[C@@H](CCC(N)=O)C(=O)N[C@@H](Cc1c[nH]c2ccccc12)C(=O)N[C@@H](CC(C)C)C(=O)N[C@H](C(N)=O)C(C)C [compound 111] (H-H[Aib]EGTFTSD[Aib]SFLLEGAALQRFIQWLV-NH2)
251 | 0.0158 | 16042 | 0.08 | 5805 | – | – | – | CC(C)C[C@H](NC(=O)[C@H](Cc1ccccc1)NC(=O)[C@H](CCCNC(=N)N)NC(=O)[C@H](CCC(N)=O)NC(=O)[C@H](CC(C)C)NC(=O)C(C)(C)NC(=O)[C@H](C)NC(=O)[C@H](CCC(=O)O)NC(=O)[C@H](CCC(=O)O)NC(=O)[C@H](CCCCNC(=O)COCCOCCNC(=O)COCCOCCNC(=O)CC[C@H](NC(=O)CCCCCCCCCCCCCCCCCCC(=O)O)C(=O)O)NC(=O)[C@H](CC(C)C)NC(=O)[C@H](Cc1ccc(O)cc1)NC(=O)[C@H](CO)NC(=O)[C@@H](NC(=O)[C@H](CC(=O)O)NC(=O)[C@H](CO)NC(=O)[C@@H](NC(=O)[C@H](Cc1ccccc1)NC(=O)[C@@H](NC(=O)CNC(=O)[C@H](CCC(=O)O)NC(=O)C(C)(C)NC(=O)[C@@H](N)Cc1c[nH]cn1)[C@@H](C)O)[C@@H](C)O)C(C)C)C(=O)N[C@@H](CCC(=O)O)C(=O)N[C@@H](Cc1ccc(O)cc1)C(=O)N[C@@H](CC(C)C)C(=O)N[C@H](C(N)=O)C(C)C [compound 144] (H-H[Aib]EGTFTSDVSYLK([AEEA-AEEA-γGlu-C20 diacid])EEA[Aib]LQRFLEYLV-NH2)
200 | 0.0158 | 11144 | 0.12 | 53478 | – | – | – | CC[C@H](C)[C@H](NC(=O)[C@H](Cc1ccccc1)NC(=O)[C@H](CCCNC(=N)N)NC(=O)[C@H](CCC(N)=O)NC(=O)[C@H](CC(C)C)NC(=O)[C@H](C)NC(=O)[C@H](C)NC(=O)CNC(=O)[C@H](CCC(=O)O)NC(=O)[C@H](CC(C)C)NC(=O)[C@H](CC(C)C)NC(=O)[C@H](CCC(=O)O)NC(=O)[C@H](CO)NC(=O)[C@@H](NC(=O)[C@H](CC(=O)O)NC(=O)[C@H](CO)NC(=O)[C@@H](NC(=O)[C@H](Cc1ccccc1)NC(=O)[C@@H](NC(=O)CNC(=O)[C@H](CCC(=O)O)NC(=O)C(C)(C)NC(=O)[C@@H](N)Cc1c[nH]cn1)[C@@H](C)O)[C@@H](C)O)C(C)C)C(=O)N[C@@H](CCC(N)=O)C(=O)N[C@@H](Cc1c[nH]c2ccccc12)C(=O)N[C@@H](CC(C)C)C(=O)N[C@H](C(N)=O)C(C)C [compound 180] (H-H[Aib]EGTFTSDVSELLEGAALQRFIQWLV-NH2)
– | – | – | 0.08 | 8584 | 7940 | 8268 | 1 | CC(C)C[C@H](NC(=O)[C@H](Cc1ccccc1)NC(=O)[C@H](CCCNC(=N)N)NC(=O)[C@H](CCC(N)=O)NC(=O)C(C)(C)NC(=O)[C@H](C)NC(=O)[C@H](C)NC(=O)[C@@H](NC(=O)[C@H](CCC(=O)O)NC(=O)[C@H](CCCCNC(=O)COCCOCCNC(=O)COCCOCCNC(=O)CC[C@H](NC(=O)CCCCCCCCCCCCCCCCCCC(=O)O)C(=O)O)NC(=O)[C@H](CC(C)C)NC(=O)[C@H](Cc1ccccc1)NC(=O)[C@H](CO)NC(=O)[C@@H](NC(=O)[C@H](CC(=O)O)NC(=O)[C@H](CO)NC(=O)[C@@H](NC(=O)[C@H](Cc1ccccc1)NC(=O)[C@@H](NC(=O)CNC(=O)[C@H](CCC(=O)O)NC(=O)C(C)(C)NC(=O)[C@@H](N)Cc1c[nH]cn1)[C@@H](C)O)[C@@H](C)O)C(C)C)[C@@H](C)O)C(=O)N[C@@H](CCC(=O)O)C(=O)N[C@@H](Cc1c[nH]cn1)C(=O)N[C@@H](CC(C)C)C(=O)N[C@H](C(N)=O)C(C)C [compound 25] (H-H[Aib]EGTFTSDVSFLK([AEEA-AEEA-γGlu-C20 diacid])ETAA[Aib]QRFLEHLV-NH2)
126 | – | 178176 | 0.08 | 4281 | – | – | – | CC(C)C[C@H](NC(=O)[C@H](Cc1ccccc1)NC(=O)[C@H](CCCNC(=N)N)NC(=O)[C@H](CCC(N)=O)NC(=O)[C@@H](NC(=O)C(C)(C)NC(=O)[C@H](C)NC(=O)[C@H](CCC(=O)O)NC(=O)[C@H](CCC(=O)O)NC(=O)[C@H](CCCCNC(=O)COCCOCCNC(=O)COCCOCCNC(=O)CC[C@H](NC(=O)CCCCCCCCCCCCCCCCCCC(=O)O)C(=O)O)NC(=O)[C@H](CC(C)C)NC(=O)[C@H](Cc1ccc(O)cc1)NC(=O)[C@H](CO)NC(=O)[C@@H](NC(=O)[C@H](CC(=O)O)NC(=O)[C@H](CO)NC(=O)[C@@H](NC(=O)[C@H](Cc1ccccc1)NC(=O)[C@@H](NC(=O)CNC(=O)[C@H](CCC(=O)O)NC(=O)C(C)(C)NC(=O)[C@@H](N)Cc1c[nH]cn1)[C@@H](C)O)[C@@H](C)O)C(C)C)[C@@H](C)O)C(=O)N[C@@H](CCC(=O)O)C(=O)N[C@@H](Cc1c[nH]cn1)C(=O)N[C@@H](CC(C)C)C(=O)N[C@H](C(N)=O)C(C)C [compound 162] (H-H[Aib]EGTFTSDVSYLK([AEEA-AEEA-γGlu-C20 diacid])EEA[Aib]TQRFLEHLV-NH2)
398 | 0.0126 | 31579 | 0.09 | 8019 | – | – | – | CC(C)C[C@H](NC(=O)[C@H](Cc1ccccc1)NC(=O)[C@H](CCCNC(=N)N)NC(=O)[C@H](CCC(N)=O)NC(=O)[C@H](C)NC(=O)[C@H](C)NC(=O)[C@H](C)NC(=O)[C@H](CCC(=O)O)NC(=O)[C@H](CCC(=O)O)NC(=O)[C@H](CCCCNC(=O)COCCOCCNC(=O)COCCOCCNC(=O)CC[C@H](NC(=O)CCCCCCCCCCCCCCCCCCC(=O)O)C(=O)O)NC(=O)[C@H](CC(C)C)NC(=O)[C@@H](NC(=O)[C@H](CO)NC(=O)[C@@H](NC(=O)[C@H](CC(=O)O)NC(=O)[C@H](CO)NC(=O)[C@@H](NC(=O)[C@H](Cc1ccccc1)NC(=O)[C@@H](NC(=O)CNC(=O)[C@H](CCC(=O)O)NC(=O)C(C)(C)NC(=O)[C@@H](N)Cc1c[nH]cn1)[C@@H](C)O)[C@@H](C)O)C(C)C)[C@@H](C)O)C(=O)N[C@@H](CCC(=O)O)C(=O)N[C@@H](Cc1c[nH]cn1)C(=O)N[C@@H](CC(C)C)C(=O)N[C@H](C(N)=O)C(C)C [compound 96] (H-H[Aib]EGTFTSDVSTLK([AEEA-AEEA-γGlu-C20 diacid])EEAAAQRFLEHLV-NH2)
